The text below walks through data of patent US20200368322A1, “METHODS OF IDENTIFYING AND USING AGENTS FOR TREATING DISEASES ASSOCIATED WITH INTESTINAL BARRIER DYSFUNCTION” (Yeda Research and Development Co. Ltd., priority 2018, published 2020).

Assay [1] deals with Citrobacter rodentium. The assay is classed as in vivo, mouse. The note with it: putrescine oral gavage 200 mg/kg twice daily. The method, then: (§1) For putrescine treatment, mice received putrescine by oral gavage with a dose of 200 mg/kg twice daily for 10 days prior to and during DSS treatment or Citrobacter rodentium infection.
A kanamycin-resistant and luciferase-expressing derivative of Citrobacter rodentium DBS100 (ICC180) was used for infection as previously described (Thaiss et al., Science. 2018 Mar. 23; 359(6382):1376-1383).
Mice were infected with 200 μl solution containing approximately 1×10^9 colony-forming units (CFU) of overnight cultured bacteria by oral gavage. Infection was monitored by enumerating stool CFU and measuring abdominal bioluminescent. For in vivo bioluminescent imaging, mice were anesthetized and bioluminescence was measured using an IVIS2000 instrument and Living Image software (Perkin Elmer). For ex vivo luminescence quantification, the whole colons were dissected, extensively washed from all luminal contents, longitudinally cut open and immediately imaged. For CFU counts, stool or tissues were collected, weighed and homogenized in sterile phosphate buffered saline (PBS−/−). Homogenates were then serially diluted in PBS−/− and plated on LB kanamycin plates, incubated overnight at 37° C. Bacterial CFUs were counted the next day, normalizing them to the stool or tissue weight.

For assay [2], the system named is tight junctions of Caco2 cells. Put plainly: Caco2 tight junction morphology (cingulin or ZO-1 staining, tortuosity). The assay is classed as cell-based, human. The method, then:
(§2) CaCo-2 cells were purchased from ATCC. Cells were routinely grown in regular tissue culture medium (DMEM, 10% FCS, penicillin/streptomycin, GlutaMAX). For experiments with differing glucose concentrations, cells were routinely cultured in low-glucose DMEM (1 g/l glucose). Cells were seeded onto 96-well glass-bottom plates coated with either fibronectin or collagen 70 000 cells/well and allowed to grow for 24 hours to form confluent monolayer before indicated treatments.
(§3) For high resolution images of manually selected representative fields, a DeltaVision wide field fluorescent microscope (GE Healthcare) equipped with 40×UPlanFLN or 60×/1.42 PlanApo N oil objective (Olympus) was used. For multi-well plate scanning, the following automated imaging stations were used: DeltaVision microscope with plate scanning regiment, Hermes imaging station (IDEA bio-Medical) or ImagExpress microXL imaging station (Molecular Devices) equipped by 40× air objectives. In all cases in order to cover the curvature of apical surface of epithelial monolayer 5 μm thick z-stack was acquired around the tight junction plane (identified by best focus algorithm) and resulting image was generated as a maximum projection of all optical sections.
Cell images were segmented using Morphological Segmentation ImageJ plug-in and junction tortuosity was calculated as a ratio between junction length and Euclidian distance between its ends.

The test system of assay [3] is mice with DSS-induced colitis. Particulars: putrescine oral gavage 200 mg/kg twice daily; 2% DSS in drinking water. As for the experimental part: as §1
In assay [4] the test system is focal adhesions of Caco2 cells. Put plainly: Caco2 cell-matrix focal adhesions (paxillin staining). The assay is classed as cell-based, human. Particulars: 10 mM acetyl-proline, 1 mM putrescine, 10 mM histamine, 5 mM spermine. The method, then:
as §2, §3

Another assay concerns Caco-2 cells. The experiment in a line: In vitro barrier assessment: ZO-1 staining and junction tortuosity of Caco-2 cells treated with glucose. The assay is classed as cell-based. Particulars: glucose plus 2-DG. As for the experimental part:
Caco-2 cells were purchased from ATCC. Cells were routinely grown in regular tissue culture medium (DMEM, 10% FCS, penicillin/streptomycin, GlutaMAX, 1 g/l glucose). For experiments, cells were seeded onto 96-well glass-bottom plates coated with fibronectin 25 μg/ml 70 000 cells/well and allowed to grow for 48 hours to form confluent monolayer before treatment with indicated concentration of glucose for indicated time period. […] Tight junctions labeling was performed with primary anti-ZO-1 mouse monoclonal antibodies (BD Transduction Laboratories) 1.25 μg/ml and secondary Alexa Fluor 488 goat anti-mouse antibodies (Invitrogen) 10 μg/ml. […] Cell images were segmented using Morphological Segmentation ImageJ plug-in and junction tortuosity was calculated as a ratio between junction length and Euclidian distance between its ends.
Hyperglycemia Reprograms Intestinal Epithelial Cells To determine whether glucose acted directly on intestinal epithelial cells to affect barrier function, an in vitro system of cultured intestinal epithelial (Caco-2) cells was used. […] Tight junction integrity was analyzed through automated high-throughput analysis of ZO-1 staining patterns. […] Global reprogramming of the epithelial transcriptome was detected in hyperglycemic mice (FIG. 41), in which more than 1,000 genes were differentially expressed compared to vehicle-treated controls (FIG. 4J). […]

The subject of assay [5] is microbial pattern recognition receptor (PRR) ligands. The experiment in a line: Quantification of microbial products at systemic sites (PRR reporter cell lines). Particulars: STZ-treated mice given the agent (insulin 0.25 U per day; 2-DG i.p. twice daily 5 mg). The assay is classed as in vivo, mouse. The method, then: (§4) To induce hyperglycemia, streptozotocin (STZ, Sigma-Aldrich) was diluted freshly in PBS and injected i.p. at 100 mg/kg at two consecutive days. Control mice were injected with PBS. Serum glucose measurements were performed using glucose strips (Perrigo). Hyperglycemic mice were used for further experimentation 2-3 weeks after STZ injection). For continuous insulin administration, ALZET osmotic pumps were used. Pumps were implanted subcutaneously in the back of the mice for 4 weeks. Insulin was delivered at 0.25 U/day. 2-deoxyglucose (2-DG) was injected i.p. twice daily at 5 mg per injection as previously described (47). Injections were performed for 10 consecutive days. Leptin antagonist was administered daily by intraperitoneal injection of 25 mg/kg as previously described (18). The following PRR reporter cell lines were obtained from Invivogen (HEK-Blue TLR and NLR reporter cell lines): TLR2, TLR3, TLR4, TLR5, TLR7, TLR9, NOD1, NOD2. Extracts from spleen, liver, and serum were homogenized and added to reporter cell lines incubated with HEK-Blue detection medium (Invivogen) according to the manufacturer's instructions.

For assay [6], the system named is intestinal epithelial cells. Put plainly: RNA-sequencing of purified intestinal epithelial cells. The note with it: STZ-treated mice, 2-DG administration. The assay is classed as in vivo, mouse. The method, then: Intestinal tissue was excised from mice, thoroughly rinsed with ice-cold PBS to clean the tissue from fecal matter, and opened longitudinally. The tissue was then cut into pieces of 1 cm length and incubated in HBSS containing 2 mM EDTA and 1 mM DTT at 37° C. for 30 mins while shaking at 130 rpm. Epithelial cells were collected, filtered, centrifuged, and subsequently stained with anti-EpCAM and anti-CD45 antibodies (Biolegend) for 30 mins on ice. Cells were then washed, resuspended and sorted into lysis/binding buffer (Life Technologies) using a FACS-FUSION cell sorter (BD).
10^4 cells from each population were sorted into 80 μl of lysis/binding buffer (Life Technologies). mRNA was captured with 12 μl of Dynabeads oligo(dT) (Life Technologies), washed, and eluted at 70° C. with 10 μl of 10 mM Tris-Cl (pH 7.5). A derivation of MARS-seq was used as described (51). An average of 1 million reads was sequenced per library (Illumina NextSeq). The reads were aligned to the mouse reference genome (NCBI 37, mm9) using TopHat v2.0.10 (52) with default parameters. Expression levels were calculated and normalized using ESAT software (garberlabdotumassmeddotedu/software/esat). Duplicate reads were filtered if they aligned to the same base and had identical UMIs. […]

In assay [7] the test system is Citrobacter rodentium. Put plainly: Citrobacter rodentium infection (bioluminescence, tissue CFU), Example 1. The assay is classed as in vivo, mouse. The method, then: as §4, with “(18).” for “(18). The following PRR reporter cell lines were obtained from Invivogen (HEK-Blue TLR and NLR reporter cell lines): TLR2, TLR3, TLR4, TLR5, TLR7, TLR9, NOD1, NOD2. Extracts from spleen, liver, and serum were homogenized and added to reporter cell lines incubated with HEK-Blue detection medium (Invivogen) according to the manufacturer's instructions.”
Mice were infected by oral gavage with 200 μl of an overnight culture of LB containing approximately 1×10^9 colony-forming units (CFU) of a kanamycin-resistant, luciferase-expressing derivative of C. rodentium DBS100 (ICC180) as previously described (16). For in vivo bioluminescent imaging, mice were anesthetized with Ketamine/Xylazine. Bioluminescence was quantified using an IVIS2000 instrument and Living Image software (Perkin Elmer). For ex vivo luminescence analysis, colons were resected, extensively washed from all fecal matter and immediately imaged. For CFU counts, tissues were collected, weighed and homogenized in 1 ml of sterile PBS. Tissue homogenates were serially diluted in PBS and plated on to LB kanamycin plates, incubated overnight at 37° C., and bacterial colonies were enumerated the following day, normalizing them to the tissue weight.

Consider `NCCCCN` [putrescine], for which, in the assay on Citrobacter rodentium [1], the “effect in mice with C. rodentium infection” value was “disruptive effect”. For the same molecule, the “recovery of the TJs after washout” value in assay [2] (CaCo2 cells pretreated 24 hrs with disruptor, then regular culture medium for 24 hours) was “partial recovery”. Besides, the “TJ structure after disruptor treatment” value in assay [2] (CaCo2 cells, 24 hrs, LPS 300 ng/ml, Histamine 10 mM, putrescine 1 mM) is “pronounced TJ disruption”. Moreover, the “effect on tight junctions in metabolite screen” value in assay [2] (Caco2 cells) was “Disruption”. Also, in assay [2] (Caco2 cells, 10 mM acetyl-proline, 1 mM putrescine, 10 mM histamine, 5 mM spermine), the tight junction morphology result was “distortion of tight junction morphology”. Besides, the “effect in mice with DSS-induced colitis” value in assay [3] was “disruptive effect”. In assay [4], the focal adhesions size result is given as “increase of focal adhesions size”.
Consider `O=CC[C@@H](O)[C@H](O)[C@H](O)CO` [2-DG, 2-deoxyglucose], for which the “glucose-induced barrier aberrations in vitro” value with Caco-2 cells was “rescued glucose-induced barrier aberrations in vitro in a dose-dependent manner”. Further, the “systemic dissemination of microbial products” value in assay [5] is “prevented the systemic dissemination of microbial products”. In assay [6], the “transcriptional reprogramming of the epithelium” value is recorded as “blocked transcriptional reprogramming in STZ-treated mice”. Further, in the assay on Citrobacter rodentium [7] (C. rodentium-infected db/db mice, 2-DG treatment), the “detectable pathogen load in the mesenteric lymph nodes, spleens and livers” value is given as “strongly reduced”. Also, the “bacterial growth in the intestinal lumen” value with Citrobacter rodentium [7] (STZ-treated C. rodentium-infected mice, 2-DG treatment) is reported as “unaffected”. In the assay with Citrobacter rodentium [7] (STZ-treated mice given the agent (insulin 0.25 U per day; 2-DG i.p. twice daily 5 mg)), the “enhanced C. rodentium growth and pathogenic translocation / host defense against C. rodentium” value was “restored host defense against C. rodentium”.
